Results from publication PMC10238102, “Anti-SARS-CoV-2 Activity of Adamantanes In Vitro and in Animal Models of Infection” (COVID, 2022).

Key:
[1] = test system: SARS-CoV-2 omicron variant B.1.1.529; assay: microbe, parasite or virus in culture; type: cell-based; details: Severe acute respiratory syndrome coronavirus 2, Vero C1008, 48 h
[2] = mouse, in vivo

| Structure (SMILES) | IC50 [1] [µM] | weight loss at 3 DPI compared to water control [2] |
| --- | --- | --- |
| CCC(CC)COC(=O)[C@H](C)N[P@](=O)(OC[C@H]1O[C@@](C#N)(c2ccc3c(N)ncnn23)[C@H](O)[C@@H]1O)Oc1ccccc1 [remdesivir] | 0.89 |  |
| CC(N)C12CC3CC(CC(C3)C1)C2 (stereo not shown) [rimantadine] | 17.8 |  |
| NC12CC3CC(CC(C3)C1)C2 [amantadine] | 106 | significant amount of weight loss |
